Laboratory results taken from ChEMBL document CHEMBL5113491, “Discovery of N-benzylarylamide derivatives as novel tubulin polymerization inhibitors capable of activating the Hippo pathway” (Eur J Med Chem, 2022).
The source made the active and inactive calls. The calls are words filed in the database; no cut-off is given here.

Tests used:
HCT-116 = assay: Antiproliferative activity against human HCT-116 cells assessed as inhibition of cell growth measured after 48 hrs by MTT assay; format: functional, cell-based; conditions: HCT-116, 48 h
KYSE-450 = assay: Antiproliferative activity against human KYSE-450 cells assessed as inhibition of cell growth measured after 48 hrs by MTT assay; format: functional, cell-based; conditions: KYSE-450, 48 h
MGC-803 = assay: Antiproliferative activity against human MGC-803 cells assessed as inhibition of cell growth measured after 48 hrs by MTT assay; format: functional, cell-based; conditions: MGC-803, 48 h
[1] = Inhibition of porcine brain microtubule polymerization measured after 1 hrs by fluorescence based assay; parameters: species or system Sus scrofa
Sus scrofa = organism: Sus scrofa; assay: Inhibition of porcine brain microtubule polymerization at 3 umol/L measured after 5 sec by fluorescence based assay; conditions: dose 3.0 µmol/L

Compound	IC50 (HCT-116) [µM]	IC50 (KYSE-450) [µM]	IC50 (MGC-803) [µM]	IC50 [1] [µM]	inhibition (Sus scrofa)
COc1ccc(CN(C(=O)CN=[N+]=[N-])c2cc(OC)c(OC)c(OC)c2)cc1O	0.41	0.16	0.12		
COc1ccc(CN(C(=O)C(C)Br)c2cc(OC)c(OC)c(OC)c2)cc1O (centres undefined)	0.14	0.16	0.12		
COc1ccc(CNc2cc(OC)c(OC)c(OC)c2)cc1OC	50.8	57.2	46.2		
COc1ccc(CN(C(=O)CCl)c2cc(OC)c(OC)c(OC)c2)cc1O	0.25	0.21	0.084		
COc1ccc(CN(C(=O)C=C(C)C)c2cc(OC)c(OC)c(OC)c2)cc1O	0.29	0.28	0.32		
C/C=C/C(=O)N(Cc1ccc(OC)cc1)c1cc(OC)c(OC)c(OC)c1	0.5	0.42	0.45		
C/C=C/C=C/C(=O)N(Cc1ccc(OC)c(O)c1)c1cc(OC)c(OC)c(OC)c1	0.18	0.18	0.14		
COc1ccc(CN(C(=O)CCCCCl)c2cc(OC)c(OC)c(OC)c2)cc1O	0.22	0.77	0.54		
CCC(=O)N(Cc1ccc(OC)c(O)c1)c1cc(OC)c(OC)c(OC)c1	0.061	0.098	0.05		
C/C=C/C(=O)N(Cc1cc(OC)c(OC)c(OC)c1)c1ccc(OC)c(O)c1	8.45	9.16	6.15		
COc1ccc(CNc2cc(OC)c(OC)c(OC)c2)cc1Cl	41.7	47.8	46.2		
C/C=C/C(=O)N(Cc1ccc(OC)c(C)c1)c1cc(OC)c(OC)c(OC)c1	23.5	32.9	14.5		
COC(=O)c1cc(CNc2cc(OC)c(OC)c(OC)c2)ccc1OC	38.1	41.1	49.6		
COc1cc(NCc2ccc(Cl)cc2)cc(OC)c1OC	> 80	> 80	> 80		
COc1ccc(/C=C\c2cc(OC)c(OC)c(OC)c2)cc1O [COMBRETASTATIN A4]	0.01	0.012	0.008	6.71	
C#CC(=O)N(Cc1ccc(OC)c(O)c1)c1cc(OC)c(OC)c(OC)c1	0.31	0.57	0.17		
CCC/C=C/C(=O)N(Cc1ccc(OC)c(O)c1)c1cc(OC)c(OC)c(OC)c1	0.095	0.057	0.07		
COc1cc(NCc2ccc(Br)cc2)cc(OC)c1OC	> 80	> 80	> 80		
COc1cc(NCc2cccc(O)c2)cc(OC)c1OC	67.7	71.3	57.6		
COc1ccc(CNc2cc(OC)c(OC)c(OC)c2)cc1	18.4	4.89	11.4		
C/C=C/C(=O)N(Cc1ccc(OC)c(F)c1)c1cc(OC)c(OC)c(OC)c1	1.16	1.4	1.65		
C/C=C/C(=O)N(Cc1ccc(OC)c(OC)c1)c1cc(OC)c(OC)c(OC)c1	32.8	39.1	20.1		
C/C=C/C(=O)N(Cc1ccc(OC)c(Br)c1)c1cc(OC)c(OC)c(OC)c1	2.8	10.5	6.43		
COCC(=O)N(Cc1ccc(OC)c(O)c1)c1cc(OC)c(OC)c(OC)c1	0.23	0.46	0.079		
COc1ccc(CN(C(=O)/C=C/CBr)c2cc(OC)c(OC)c(OC)c2)cc1O	0.059	0.1	0.071		
COc1ccc(NCc2cc(OC)c(OC)c(OC)c2)cc1O	5.23	4.18	9.59		Active

Compound	IC50 (HCT-116) [µM]	IC50 (KYSE-450) [µM]	IC50 (MGC-803) [µM]	IC50 [1] [µM]	inhibition (Sus scrofa)
COc1cc2c(c(OC)c1OC)-c1ccc(OC)c(=O)cc1[C@@H](NC(C)=O)CC2 [COLCHICINE]	0.081	0.077	0.062		
COc1ccc(CN(C(=O)C[Se]C#N)c2cc(OC)c(OC)c(OC)c2)cc1O	0.31	0.28	0.27		
COc1ccc(N(Cc2cc(OC)c(OC)c(OC)c2)C(=O)CN=[N+]=[N-])cc1O	38.8	26.1	22.4		
COc1ccc(CN(C(=O)CCCl)c2cc(OC)c(OC)c(OC)c2)cc1O	0.15	0.11	0.14		
C/C=C/C(=O)N(Cc1ccc(OC)c(Cl)c1)c1cc(OC)c(OC)c(OC)c1	1.42	10.1	7.1		
C=CC(=O)N(Cc1ccc(OC)c(O)c1)c1cc(OC)c(OC)c(OC)c1	0.098	0.16	0.062		
C/C=C/C(=O)N(Cc1cccc(O)c1)c1cc(OC)c(OC)c(OC)c1	6.7	14.7	14.1		
COc1ccc(CN(C(C)=O)c2cc(OC)c(OC)c(OC)c2)cc1O	0.27	0.16	0.079		
COc1ccc(CNc2cc(OC)c(OC)c(OC)c2)cc1O	3.22	1.4	1.49		Active
C=C(C)C(=O)N(Cc1ccc(OC)c(O)c1)c1cc(OC)c(OC)c(OC)c1	0.2	0.2	0.39		
COc1ccc(CNc2cc(OC)c(OC)c(OC)c2)cc1[N+](=O)[O-]	18.2	16.8	19.4		
COc1ccc(CN(C(=O)CBr)c2cc(OC)c(OC)c(OC)c2)cc1O	0.068	0.12	0.14		
COc1ccc(CNc2cc(OC)c(OC)c(OC)c2)cc1F	32.2	46.2	39.7		
C/C=C/C(=O)N(Cc1ccc(OC)c([N+](=O)[O-])c1)c1cc(OC)c(OC)c(OC)c1	0.67	0.51	0.59		
COc1cc(NCc2ccccc2)cc(OC)c1OC	> 80	> 80	> 80		
COc1ccc(CN(C(=O)C(C)C)c2cc(OC)c(OC)c(OC)c2)cc1O	0.31	0.39	0.21		
CCCCC(=O)N(Cc1ccc(OC)c(O)c1)c1cc(OC)c(OC)c(OC)c1	0.17	0.3	0.066		
COc1ccc(CN(C(=O)C2CC2)c2cc(OC)c(OC)c(OC)c2)cc1O	0.049	0.08	0.059		
COc1ccc(CNc2cc(OC)c(OC)c(OC)c2)cc1Br	48.1	39.8	29.4		
COc1ccc(N(Cc2cc(OC)c(OC)c(OC)c2)C(=O)CCl)cc1O	22.5	29.8	24.5		
C/C=C/C(=O)N(Cc1ccc(OC)c(N)c1)c1cc(OC)c(OC)c(OC)c1	0.3	0.31	0.15		
CC/C=C/C(=O)N(Cc1ccc(OC)c(O)c1)c1cc(OC)c(OC)c(OC)c1	0.063	0.072	0.058		
COc1cc(NCc2ccc(C)cc2)cc(OC)c1OC	> 80	> 80	> 80		
COc1ccc(CNc2cc(OC)c(OC)c(OC)c2)cc1C	60.9	73.8	56.8		
COc1ccc(CNc2cc(OC)c(OC)c(OC)c2)cc1N	8.27	2.21	7.97		
COc1ccc(CN(C(=O)CO)c2cc(OC)c(OC)c(OC)c2)cc1O	0.52	0.37	0.16		
